The text below walks through data of ChEMBL document CHEMBL3526136, “Structure and function of cytochromes P450 2B: from mechanism-based inactivators to X-ray crystal structures and back” (Drug Metab Dispos, 2011).

In this test the target is Cytochrome P450 2B4 (Oryctolagus cuniculus) (UniProt P00178). The experiment in a line: Binding affinity to C-terminal His4-tagged CYP2B4 dH/H226Y mutant (rabbit) after 2 hrs by isothermal titration calorimetric analysis. (In general: Isothermal titration calorimetry measures the heat released or taken up as one component is titrated into another.)

A word on the Kd: it is the concentration at which binding is half-saturated.

For the compound `Clc1ccc(-n2ccnc2)cc1`, the Kd was determined as 300 nM. In other words, the sub-micromolar range.
With `Clc1ccc(-c2cnc[nH]2)cc1` the figure was 300 nM; with `c1ccc(-n2ccnc2)cc1`, 300 nM; with `c1ccc(COCCn2ccnc2)cc1`, 300 nM.
Turning to `c1ccc(Cn2ccnc2)cc1` [BENZYLIMIDAZOLE], the affinity, expressed as Kd, was 300 nM.
